This passage reports IC50 results from US20140011799A1 (Bristol-Myers Squibb Company, priority 2012, published 2014).

Some results are limits rather than exact numbers.

One assay concerns the target T1, hepatic lipase (HL) (Homo sapiens, UniProt P11150).
T1 construct: made in house; host or cells: COS cells (conditioned medium, partially purified)
T1 sequence (P11150 23-499): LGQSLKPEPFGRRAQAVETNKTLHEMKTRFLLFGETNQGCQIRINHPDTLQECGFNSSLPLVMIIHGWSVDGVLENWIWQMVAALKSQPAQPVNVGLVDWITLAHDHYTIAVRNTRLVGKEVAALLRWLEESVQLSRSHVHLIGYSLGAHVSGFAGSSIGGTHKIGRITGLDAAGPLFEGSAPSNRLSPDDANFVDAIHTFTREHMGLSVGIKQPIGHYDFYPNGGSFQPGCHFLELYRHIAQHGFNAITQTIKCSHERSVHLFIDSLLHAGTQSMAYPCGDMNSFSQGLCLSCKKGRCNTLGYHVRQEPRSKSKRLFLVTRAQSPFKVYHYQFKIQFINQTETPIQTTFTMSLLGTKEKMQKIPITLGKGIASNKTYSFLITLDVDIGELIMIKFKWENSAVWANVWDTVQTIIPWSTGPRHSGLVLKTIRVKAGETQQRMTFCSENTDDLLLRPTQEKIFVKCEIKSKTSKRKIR
In words: Hepatic lipase (HL) enzymatic assay, fluorescent substrate A10070 in DMPG vesicles. The assay is classed as biochemical. The note with it: HL partially purified from conditioned media of COS cells; compound preincubated 30 min at 37° C; read-out: HL IC50. An outline of the steps: (§1)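 Substrate A10070 sits in sonicated DMPG vesicles at 0.11 mole fraction. Lipase and compound preincubated 30 min, 37° C, in HEPES pH 8.0 buffer with CaCl2.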

Another assay addresses T2, Endothelial lipase (EL) (Homo sapiens, UniProt Q9Y5X9).
T2 construct: HT-1080 cells that were transformed using RAGE technology (Athersys) to overexpress endogenous EL; endogenous in cells; conditioned medium used
T2 sequence (Q9Y5X9 21-500): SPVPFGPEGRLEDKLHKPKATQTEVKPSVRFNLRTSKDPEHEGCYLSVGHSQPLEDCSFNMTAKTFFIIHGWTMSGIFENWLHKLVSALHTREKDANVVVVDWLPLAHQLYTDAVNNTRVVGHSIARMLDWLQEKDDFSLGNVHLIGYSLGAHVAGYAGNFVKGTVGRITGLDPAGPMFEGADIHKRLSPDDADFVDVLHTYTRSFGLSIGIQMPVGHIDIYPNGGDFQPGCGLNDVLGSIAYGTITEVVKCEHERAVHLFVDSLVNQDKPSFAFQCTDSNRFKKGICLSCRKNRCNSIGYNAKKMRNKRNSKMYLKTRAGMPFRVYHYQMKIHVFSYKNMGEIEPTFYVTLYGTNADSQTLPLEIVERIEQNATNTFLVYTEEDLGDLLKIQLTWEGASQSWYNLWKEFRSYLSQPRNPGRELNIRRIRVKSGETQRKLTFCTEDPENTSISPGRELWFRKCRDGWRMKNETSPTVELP
Briefly: Endothelial lipase (EL) enzymatic assay, fluorescent substrate A10070 in DMPG vesicles. The assay is classed as biochemical. The conditions noted are these: EL from conditioned media of HT-1080 cells; compound preincubated 30 min at 37° C; read-out: EL IC50. An outline of the steps:
as §1

Regarding `NS(=O)(=O)NCc1nnc(C(c2nc3ccc(-c4ccc(C(=O)N5CCOCC5)c(Cl)c4)cc3s2)S(=O)(=O)Cc2ccccc2)o1` (stereo not shown) [Example 149, N-((5-((benzylsulfonyl)(6-(3-chloro-4-(4-morpholinylcarbonyl)phenyl)-1,3-benzothiazol-2-yl)methyl)-1,3,4-oxadiazol-2-yl)methyl)sulfamide], the IC50 (usually the concentration that inhibits the measured activity by half) on hepatic lipase (HL) is 121 nM; at Endothelial lipase (EL) it was less than 10 nM.

For `CS(=O)(=O)C(c1nnc(CNS(N)(=O)=O)o1)c1nc2ccc(-c3cccc(C(=O)Nc4cccnc4)c3)cc2s1` (stereo not shown) [Example 263, 3-{2-[methanesulfonyl({5-[(sulfamoylamino)methyl]-1,3,4-oxadiazol-2-yl})methyl]-1,3-benzothiazol-6-yl}-N-(pyridin-3-yl) benzamide], the IC50 came to 26 nM on hepatic lipase (HL) and 4 nM on Endothelial lipase (EL).

Consider `CC(C)(C)OC(=O)Cc1nnc(C(c2nc3ccc(-c4ccc(C(=O)N5CCOCC5)cc4)cc3s2)S(C)(=O)=O)o1` (stereo not shown) [Example 107, tert-butyl (5-((methylsulfonyl)(6-(4-(4-morpholinylcarbonyl)phenyl)-1,3-benzothiazol-2-yl)methyl)-1,3,4-oxadiazol-2-yl)acetate], for which the IC50 came to 13 nM at hepatic lipase (HL) and 28 nM at Endothelial lipase (EL).

Consider `NCCS(=O)(=O)C(c1nnc(CNS(N)(=O)=O)o1)c1nc2ccc(-c3ccccc3)cc2s1` (stereo not shown) [Example 187, N-[(5-{[(2-aminoethyl)sulfonyl](6-phenyl-1,3-benzothiazol-2-yl)methyl}-1,3,4-oxadiazol-2-yl)methyl] sulfuric diamide], for which the values for the half-maximal inhibitory concentration (IC50) at hepatic lipase (HL) and on Endothelial lipase (EL) were 12 nM and less than 10 nM, respectively.

On to `C=CCS(=O)(=O)C(c1nnc(CNS(N)(=O)=O)o1)c1nc2ccc(-c3ccc(C(=O)N4CCOCC4)cc3)cc2s1` (stereo not shown) [Example 150, N-((5-((allylsulfonyl)(6-(4-(4-morpholinylcarbonyl)phenyl)-1,3-benzothiazol-2-yl)methyl)-1,3,4-oxadiazol-2-yl)methyl)sulfamide], for which the half-maximal inhibitory concentration (IC50) at hepatic lipase (HL) was 560 nM; at Endothelial lipase (EL) it was less than 10 nM.

As for `CS(=O)(=O)C(c1nnc(CNS(N)(=O)=O)o1)c1nc2cc(-c3cncnc3)ccc2s1` (stereo not shown) [Example 247, N-[(5-{methanesulfonyl[5-(pyrimidin-5-yl)-1,3-benzothiazol-2-yl]methyl}-1,3,4-oxadiazol-2-yl)methyl]aminosulfonamide], the IC50 on hepatic lipase (HL) was 43 nM; on Endothelial lipase (EL) it was 4 nM.

For `CS(=O)(=O)NCc1nnc(C(c2nc3ccc(-c4ccc(C(=O)N5CCOCC5)cc4)cc3s2)S(C)(=O)=O)o1` (stereo not shown) [Example 173, N-((5-((Methylsulfonyl)(6-(4-(4-morpholinylcarbonyl)phenyl)-1,3-benzothiazol-2-yl)methyl)-1,3,4-oxadiazol-2-yl)methyl)methanesulfonamide], the figures for the IC50 at hepatic lipase (HL) and at Endothelial lipase (EL) were 58 nM and 35 nM, respectively.

In the case of `CS(=O)(=O)C(c1nnc(CC2SC(=O)NC2=O)o1)c1nc2cc(F)c(-c3ccccc3)cc2s1` (stereo not shown) [Example 160, 5-((5-((5-fluoro-6-phenyl-1,3-benzothiazol-2-yl)(methylsulfonyl)methyl)-1,3,4-oxadiazol-2-yl)methyl)-1,3-thiazolidine-2,4-dione], the IC50 was 13 nM at hepatic lipase (HL) and less than 10 nM at Endothelial lipase (EL).

On to `COCCNC(=O)c1cccc(-c2ccc3nc(C(c4nnc(CNS(N)(=O)=O)o4)S(C)(=O)=O)sc3c2)c1` (stereo not shown) [Example 262, 3-{2-[methanesulfonyl({5-[(sulfamoylamino)methyl]-1,3,4-oxadiazol-2-yl})methyl]-1,3-benzothiazol-6-yl}-N-(2-methoxyethyl) benzamide], for which the IC50 turned out to be 45 nM at hepatic lipase (HL) and 14 nM on Endothelial lipase (EL).

In the case of `CC(O)CNC(=O)Cc1nnc(C(c2nc3ccc(-c4ccc(C(=O)N5CCOCC5)cc4)cc3s2)S(=O)(=O)Cc2ccccc2)o1` (stereo not shown) [Example 179, 2-(5-((benzylsulfonyl)(6-(4-(4-morpholinylcarbonyl)phenyl)-1,3-benzothiazol-2-yl)methyl)-1,3,4-oxadiazol-2-yl)-N-(2-hydroxypropyl) acetamide], the IC50 at hepatic lipase (HL) is 518 nM; on Endothelial lipase (EL), less than 10 nM.

With `CC(C)(C)OC(=O)NS(=O)(=O)NCc1nnc(C(c2nc3ccc(-c4ccc(Cl)cc4)cc3s2)S(=O)(=O)Cc2ccccc2)o1` (stereo not shown) [Example 123, tert-butyl (((5-((benzylsulfonyl)(6-(4-chlorophenyl)-1,3-benzothiazol-2-yl)methyl)-1,3,4-oxadiazol-2-yl)methyl)sulfamoyl)carbamate], the half-maximal inhibitory concentration (IC50) at hepatic lipase (HL) and at Endothelial lipase (EL) was less than 10 nM in each case.
